Values after ≈ are worked out from the molar mass of the structure shown. Read-outs that look alike come from different tables or passages of the source.
Key:
MSSA ATCC 29213 [1] = assay: Time-kill in nutrient-depleted CAMHB; assay type: cell-based, S. aureus; conditions: 24 hour time point, estimated fCmax
Description: (§1) Nutrient-depleted CAMHB from each respective strain was prepared by 3 rounds of inoculation of CAMHB with exponential-phase bacteria, incubation overnight at 37° C. with rotation (225 rpm) and centrifugation (8000×g for 30 minutes) to remove bacteria. After the final round of inoculation, growth and centrifugation, the pH of the nutrient-depleted CAMHB was adjusted to pH=7.0 and the spent medium was filter-sterilized using a […] membrane (Corning Incorporated, Corning, N.Y.).
(§2) Nutrient-depleted CAMHB containing diluted antimicrobial agents was inoculated with stationary-phase bacteria from overnight cultures of the S. aureus strains at approximately 10^7 colony-forming units (CFU)/mL. Other experiments compared the killing of stationary- and exponential-phase S. aureus ATCC 29213 when inoculated into nutrient-depleted CAMHB containing the test agents. For assays involving daptomycin, nutrient-depleted CAMHB was supplemented with 50 μg/ml CaCl2 (8). All time-kill studies were performed in 96-well deep-well plates at 37° C. with rotation (225 rpm) in a total volume of 750 μL. Bacteria were enumerated by serial-dilution plating. Bacteriostatic and bactericidal activity of the antimicrobial agents were defined as a reduction in viable cell counts of <3 or ≥3 log at 24 hours relative to the starting inoculum, respectively (33). Experiments were repeated at least three times and produced similar results; results from one experiment are presented.

S. aureus ATCC 29213 [2] = assay: Membrane depolarization, DiSC3(5) fluorescence; assay type: cell-based; conditions: 30 min
Description: Bacteria were grown overnight in CAMHB and sub-cultured the following day in CAMHB to exponential phase (OD600≈0.25). Exponential- and stationary-phase cells were washed in membrane assay buffer with or without 5 mM glucose, respectively, and resuspended at an OD600=0.25. DiSC3(5) was added to a final concentration of 1.5 μM and the solution was incubated in the dark at ambient temperature for 30 minutes to allow loading of the fluorescent dye into cell membranes. After the loading period, cells were diluted 50-fold (OD600=0.005) in depolarization buffer with or without glucose for exponential- or stationary-phase cells, respectively. Assays were initiated by the addition of antimicrobial agents over a range of concentrations and were monitored in real time by fluorescence spectroscopy (λex=612, λem=665) for a period of 30 minutes. […] Experiments were repeated three times and produced similar results; results from one assay are presented.

S. aureus ATCC 29213 [3] = assay: Membrane permeability, SYTO-9/propidium iodide fluorescence; assay type: cell-based; conditions: 30 min
Description: For membrane permeability assays, bacteria were prepared identically as described above for the membrane depolarization assay with the exception that SYTO-9 and propidium iodide (Invitrogen Corporation) were added at 5 μM and 30 μM, respectively. Experiments were repeated three times and produced similar results; results from one assay are presented.

S. aureus ATCC 29213 [4] = assay: Short duration (2 h) time-kill in membrane assay buffer; assay type: cell-based; conditions: for killing over short time course: fCmax
Description: Short duration (2 h) time-kill studies were performed in membrane assay buffer (see below) to characterize the killing of S. aureus ATCC 29213 under conditions used in the membrane depolarization and permeability assays. Exponential- and stationary-phase S. aureus ATCC 29213 cells were diluted to an OD600=0.005 (approx 10^6 CFU/mL) in membrane assay buffer (10 mM HEPES-C1, pH 7.5, 50 μg/mL CaCl2) with or without 5 mM glucose, respectively. Experiments were initiated by the addition of antimicrobial agents at the indicated concentrations and bacteria were enumerated by serial-dilution plating.

[5] = system: stationary-phase MRSA ATCC 43300; assay: Ultrastructure by transmission electron microscopy of thin sections; assay type: cell-based, S. aureus; conditions: 3 hours in nutrient-depleted CAMHB; 1 μg/mL oritavancin, 16 μg/mL vancomycin
Description: Bacteria were fixed in 2.5% glutaraldehyde to cross-link proteins and help preserve morphological structure. Prior to embedding, the samples were treated with fresh 2.5% (vol/vol) glutaraldehyde in HEPES buffer (pH, 6.8) for 2 hours. The samples were then post-fixed in 2.0% (wt/vol) osmium tetroxide, followed by en bloc-staining with 2.0% (wt/vol) uranyl acetate, as a heavy-metal stain, to add contrast to the cells. The cells were then dehydrated through a series of ethanol washes then embedded in LR White resin. Once polymerized by curing, each culture sample was thin sectioned and stained by uranyl acetate and lead citrate so as to view the internal cellular constituents and the juxtaposition of cell envelope layers such as the plasma membrane and cell wall. Transmission electron microscopy was used to view the thin sections using a Philips CM10 under standard operating conditions at 100 kV.

MRSA ATCC 33591 [6] = assay: MBEC system in vitro biofilm (MIC and MBEC); assay type: cell-based, S. aureus; conditions: for MBEC: 24-hour biofilm, 24 hours of exposure; for MIC: Staphylococcus aureus
Description: (§3) The commercially-available MBEC™ system (Innovotech; Edmonton, AB, Canada) was used following the manufacturer's protocol (17) to establish in vitro biofilms of S. aureus and to determine the minimal biofilm eradication concentration (MBEC) of oritavancin and comparator antimicrobial agents. The MBEC represents the concentration of antimicrobial agent required to sterilize the biofilm after 24 hours of exposure. The MBEC™ system also allows for the determination of the minimal inhibitory concentration (MIC) of the test agent against planktonic cells under the conditions of the biofilm assay.
(§4) 150 μL of bacterial inocula at 10^7 CFU/mL in tryptic soy broth was aliquoted into each well of an MBEC plate. Biofilms were established for 24 hours in a rotary incubator at 37° C. and 150 rpm. For experiments involving 72-hour biofilms, peg lids were transferred each day to 96-well plates containing 150 μL/well of fresh tryptic soy broth and incubated another 24 hours. Peg lids with established biofilms were washed once in sterile saline (200 μL/well) and then placed in plates containing antimicrobial agents diluted in CAMHB (200 μL/well). Antimicrobial agents were serially diluted in CAMHB in 96-well plates and peg lids were exposed for 24 hours or for the indicated times. Following antimicrobial challenge, peg lids were washed once in sterile saline then placed in recovery plates containing CAMHB (200 μL/well). The recovery plates were sonicated for 5 minutes in an ultrasonic sonicating bath (VWR Aquasonic model 550D) at the maximum setting then incubated for 24 hours and the MBECs recorded. MBECs were determined from at least three independent experiments; results represent the ranges of MBECs obtained. To enumerate the biofilm colony forming units (CFUs) on individual control pegs, pegs were broken off the lid using sterile forceps placed in 1 ml sterile saline, sonicated for 5 min and vortexed for 1 min at the highest setting. Bacteria were then enumerated by serial-dilution plating.
(§5) To prevent loss of oritavancin due to binding to vessel surfaces (3), the CLSI now recommends inclusion of 0.002% polysorbate-80 for oritavancin broth microdilution MIC determinations (9).

MSSA ATCC 29213 [7] = assay: MBEC system in vitro biofilm (MIC and MBEC); assay type: cell-based, S. aureus; conditions: for MBEC: 24-hour biofilm, 24 hours of exposure; for MIC: Staphylococcus aureus
Description: as §3, §4, §5

VRSA VRS5 [8] = assay: MBEC system in vitro biofilm (MIC and MBEC); assay type: cell-based, S. aureus; conditions: for MBEC: 24-hour biofilm, 24 hours of exposure; for MIC: Staphylococcus aureus, VRSA
Description: as §3, §4, §5

[9] = system: exponentially-growing S. aureus (MSSA, MRSA, VRSA); conditions: actively dividing cells; cited from earlier work
[10] = cited from earlier work; for estimated fCmax in plasma: human, in vivo, 200 mg
MRSA ATCC 33591 [11] = assay: Time-kill in nutrient-depleted CAMHB; assay type: cell-based, S. aureus; conditions: stationary-phase, 24-hour incubation, fCmax
Description: as §1, §2

VRSA VRS5 [12] = assay: Time-kill in nutrient-depleted CAMHB; assay type: cell-based, S. aureus; conditions: stationary-phase, 24-hour incubation, fCmax
Description: as §1, §2

[13] = system: S. epidermidis ATCC 35984; assay: MBEC plate biofilm eradication, agents in combination; assay type: cell-based
Text: The following strains were used for in vitro biofilm studies: vancomycin (VAN)-susceptible Enterococcus faecalis ATCC 29212 (VSE), VAN-resistant E. faecalis ATCC 51299 (VanB VRE), E. faecium ATCC 51559 (VanA VRE), S. epidermidis ATCC 12228 and the slime-producing strain S. epidermidis ATCC 35984. Biofilms were established in MBEC™ Physiology & Genetics Assay plates (Innovotech; Edmonton, Canada).

[14] = oritavancin without polysorbate-80
[15] = planktonic cells shed from 24-hour peg biofilms, oritavancin without polysorbate-80, read-out: MIC

Row | SMILES | dissipation of membrane potential (DiSC3(5) fluorescence) (S. aureus ATCC 29213 [2]; exponential-phase cells) | dissipation of membrane potential (DiSC3(5) fluorescence) (S. aureus ATCC 29213 [2]; stationary-phase cells) | membrane permeability (SYTO-9 fluorescence) (S. aureus ATCC 29213 [3]; exponential-phase cells) | membrane permeability (SYTO-9 fluorescence) (S. aureus ATCC 29213 [3]; stationary-phase cells) | killing over short time course (S. aureus ATCC 29213 [4]; exponential-phase cells) | MBEC (MRSA ATCC 33591 [6]; [14]) [µg/mL] | MBEC (MSSA ATCC 29213 [7]; [14]) [µg/mL] | MBEC (VRSA VRS5 [8]; [14]) [µg/mL] | MIC (MRSA ATCC 33591 [6]; [15]) [µg/mL] | MIC (MSSA ATCC 29213 [7]; [15]) [µg/mL] | MIC (VRSA VRS5 [8]; [15]) [µg/mL] | estimated fCmax in plasma [10] [µg/mL] | further results
1 | CN[C@H](CC(C)C)C(=O)N[C@H]1C(=O)N[C@@H](CC(N)=O)C(=O)N[C@H]2C(=O)N[C@H]3C(=O)N[C@H](C(=O)N[C@H](C(=O)O)c4cc(O)cc(O)c4-c4cc3ccc4O)[C@H](O)c3ccc(c(Cl)c3)Oc3cc2cc(c3O[C@@H]2O[C@H](CO)[C@@H](O)[C@H](O)[C@H]2O[C@H]2C[C@](C)(N)[C@H](O)[C@H](C)O2)Oc2ccc(cc2Cl)[C@H]1O [Vancomycin, vancomycin] | no effect on membrane potential | no effect on membrane potential | no effect on fluorescence | no effect on fluorescence | did not effect any change | ≥128 | >128 | >128 |  |  |  |  | less killing activity against stationary-phase cells compared to exponential-phase cells (MSSA ATCC 29213 [1]): approx 2.4 log; killing over short time course (S. aureus ATCC 29213 [4]; stationary-phase cells): did not effect any change; septal mid-line staining [5]: evident; MIC (MRSA ATCC 33591 [6]; 24 h): 1 to 2 µg/mL (≈ 0.69 to 1.38 µM); MIC (MSSA ATCC 29213 [7]; 24 h): 1 µg/mL (≈ 0.69 µM); MIC (MSSA ATCC 29213 [7]; 72 h, read-out: planktonic MIC): 2 to 16 µg/mL (≈ 1.38 to 11 µM); MIC (VRSA VRS5 [8]; 24 h): > 128 µg/mL; time required to exert bactericidal activity [9]: 24 h; estimated free trough concentration in plasma ([10]; humans, standard dose (oritavancin 200 mg)): 4 µg/mL
2 | CC(=O)NC[C@H]1CN(c2ccc(N3CCOCC3)c(F)c2)C(=O)O1 [Linezolid, linezolid] |  |  |  |  |  | >128 | >128 | >128 | 2 to 4 (≈ 5.93 to 11.9 µM) | 8 (≈ 23.7 µM) | 4 to 8 (≈ 11.9 to 23.7 µM) |  | effect on bacterial cell numbers (MRSA ATCC 33591 [11]): no effect; effect on bacterial cell numbers (VRSA VRS5 [12]): no effect; MIC (MSSA ATCC 29213 [7]; 72-hour biofilms, read-out: planktonic MIC): 8 to 16 µg/mL (≈ 23.7 to 47.4 µM)
3 | CO[C@H]1/C=C/O[C@@]2(C)Oc3c(C)c(O)c4c(O)c(c(/C=N/N5CCN(C)CC5)c(O)c4c3C2=O)NC(=O)/C(C)=C\C=C\[C@H](C)[C@H](O)[C@@H](C)[C@@H](O)[C@@H](C)[C@H](OC(C)=O)[C@@H]1C [Rifampicin, rifampicin] |  |  |  |  |  | 0.25 to 4 | 4 | 4 | < 0.03 | < 0.02 | 0.03 to 0.06 (≈ 0.0365 to 0.0729 µM) | 2 | 
4 | COc1c(N2C[C@@H]3CCCN[C@@H]3C2)c(F)cc2c(=O)c(C(=O)O)cn(C3CC3)c12 [MOX, moxifloxacin] |  |  |  |  |  |  |  |  |  |  |  |  | MBEC in combination ([13]; combination of ORI and MOX required for sterilization): 4 mg/L
5 | CCCCCCCCCC(=O)N[C@@H](Cc1c[nH]c2ccccc12)C(=O)N[C@H](CC(N)=O)C(=O)N[C@@H](CC(=O)O)C(=O)N[C@@H]1C(=O)NCC(=O)N[C@@H](CCCN)C(=O)N[C@@H](CC(=O)O)C(=O)N[C@H](C)C(=O)N[C@@H](CC(=O)O)C(=O)NCC(=O)N[C@H](CO)C(=O)N[C@@H]([C@H](C)CC(=O)O)C(=O)N[C@@H](CC(=O)c2ccccc2N)C(=O)O[C@@H]1C [Daptomycin, daptomycin] | small effect | did not effect changes | loss of fluorescence | no effect | Rapid killing |  |  |  |  |  |  | 4 | reduction in CFU (S. aureus ATCC 29213 [4]; stationary-phase cells, within the 2-hour time period, oritavancin at fCmax 800, daptomycin at fCmax): 0.7 log
6 | CO[C@H]1/C=C/O[C@@]2(C)Oc3c(C)c(O)c4c(c3C2=O)C2=NC3(CCN(CC(C)C)CC3)NC2=C(NC(=O)/C(C)=C\C=C\[C@H](C)[C@H](O)[C@@H](C)[C@@H](O)[C@@H](C)[C@H](OC(C)=O)[C@@H]1C)C4=O [RFB, rifabutin] |  |  |  |  |  |  |  |  |  |  |  |  | MBEC in combination ([13]; combination of ORI and RFB required for sterilization): 0.125 mg/L

— patent US10201587B2, “Methods of inhibiting and treating biofilms using glycopeptide antibiotics” (MELINTA THERAPEUTICS, INC., priority 2008, dated 2019)
